Columns and labels:
Assay in all cases: Antimicrobial Susceptibility Test (CLSI), Test Example 2
Type in all cases: cell-based
Design in all cases: unit not given here
P. aeruginosa FSPa-121 = settings: Table 4; strain produces OXA-17
Procedure: (§1) Antimicrobial Susceptibility Test was performed by the CLSI (Clinical and Laboratory Standards Institute) methods. The agar dilution method for determining antimicrobial susceptibility was carried out using Mueller Hinton-II agar and the amount of inoculation was 10^4CFU/spot. Broth dilution tests were performed using the Mueller Hinton-II broth. All assays were run with the indicated control strains, available from the ATCC (American Type Culture Collection, Rockville, Md.).

A. baumannii FSAb-029 = settings: Table 4; strain produces OXA-2, IMP-1
Procedure: as §1

E. coli FSEco-054 = settings: Table 4; strain produces ESBL
Procedure: as §1

[1] = tested on: K. pneumoniae ATCC BAA-1904; settings: Table 4; strain produces KPC-3
Procedure: as §1

A. baumannii FSAb-056 = settings: Table 4; strain produces OXA-23, OXA-51
Procedure: as §1

A. baumannii FSAb-065 = settings: Table 4; strain produces OXA-2, VIM-2
Procedure: as §1

A. baumannii FSAb-039 = settings: Table 4; strain produces OXA-51
Procedure: as §1

Structure (SMILES)	antimicrobial susceptibility, P. aeruginosa FSPa-121 (P. aeruginosa FSPa-121)	antimicrobial susceptibility, A. baumannii FSAb-029 (A. baumannii FSAb-029)	antimicrobial susceptibility, E. coil FSEco-054 (E. coli FSEco-054)	antimicrobial susceptibility, K. pneumoniae BAA-1904 [1]	antimicrobial susceptibility, A. baumannii FSAb-056 (A. baumannii FSAb-056)	antimicrobial susceptibility, A. baumannii FSAb-065 (A. baumannii FSAb-065)	antimicrobial susceptibility, A. baumannii FSAb-039 (A. baumannii FSAb-039)
C[C@@H](O)[C@H]1C(=O)N2C(C(=O)O)=C(CN(C)CCNC(=O)c3ccc(O)c(O)c3F)[C@H](C)[C@H]12 [Compound 2]	2	2	2	16	2	2	4
C[C@@H](O)[C@H]1C(=O)N2C(C(=O)O)=C(CN(C)CCNC(=O)c3ccc(O)c(O)c3C(F)(F)F)[C@H](C)[C@H]12 [Compound 3]	4	4	4	32	4	2	4
Cc1c(C(=O)NCCN(C)CC2=C(C(=O)O)N3C(=O)[C@H]([C@@H](C)O)[C@H]3[C@H]2C)ccc(O)c1O [Compound 4]	8	8	8	16	8	4	8
C[C@@H](O)[C@H]1C(=O)N2C(C(=O)O)=C(CN(C)CCNC(=O)c3cc(O)c(O)c(F)c3)[C@H](C)[C@H]12 [Compound 7]	2	2	2	16	2	2	4
C[C@@H](O)[C@H]1C(=O)N2C(C(=O)O)=C(CN(C)CCNC(=O)c3ccc(O)cc3)[C@H](C)[C@H]12 [Compound 10]	>32	16	>32	8	16	16	>32
C[C@@H](O)[C@H]1C(=O)N2C(C(=O)O)=C(CN(C)CCNC(=O)c3cccc(O)c3Cl)[C@H](C)[C@H]12 [Compound 11]	>32	32	>32	8	32	32	>32
C[C@@H](O)[C@H]1C(=O)N2C(C(=O)O)=C(CN(C)CCNC(=O)c3cccc(O)c3F)[C@H](C)[C@H]12 [Compound 12]	>32	32	>32	4	32	32	>32
C[C@@H](O)[C@H]1C(=O)N2C(C(=O)O)=C(CN(C)CCNC(=O)c3ccccc3Cl)[C@H](C)[C@H]12 [Compound 13]	>32	32	>32	8	32	16	>32
C[C@@H](O)[C@H]1C(=O)N2C(C(=O)O)=C(CN(C)CCNC(=O)c3ccc(Cl)cc3)[C@H](C)[C@H]12 [Compound 14]	>32	>32	>32	16	>32	>32	>32
C[C@@H](O)[C@H]1C(=O)N2C(C(=O)O)=C(CN(C)CCNC(=O)c3ccc(OC(=O)C(C)(C)C)c(OC(=O)C(C)(C)C)c3Cl)[C@H](C)[C@H]12 [Compound 16]	8	4	8	>32	8	8	8
C[C@@H](O)[C@H]1C(=O)N2C(C(=O)O)=C(CN(C)CCCNC(=O)c3ccc(O)c(O)c3Cl)[C@H](C)[C@H]12 [Compound 17]	4	2	2	32	4	2	8
C[C@@H](O)[C@H]1C(=O)N2C(C(=O)O)=C(CN(C)CC(NC(=O)c3ccc(O)c(O)c3Cl)C(N)=O)[C@H](C)[C@H]12 (some centres unmarked) [Compound 18]	2	8	2	16	4	1	4
C[C@@H](O)[C@H]1C(=O)N2C(C(=O)O)=C(CN(C)CC(=O)NCc3ccc(O)c(O)c3Cl)[C@H](C)[C@H]12 [Compound 21]	2	8	4	8	8	2	8
C[C@@H](O)[C@H]1C(=O)N2C(C(=O)O)=C(CN3CC[C@H](NC(=O)c4ccc(OCc5ccccc5)c(OCc5ccccc5)c4Cl)C3)[C@H](C)[C@H]12 [Compound 28]	2	0.5	2	>32	4	0.5	8
C[C@@H](O)[C@H]1C(=O)N2C(C(=O)O)=C(CN3CC(NC(=O)c4ccc(O)c(O)c4F)[C@@H](O)C3)[C@H](C)[C@H]12 (some centres unmarked) [Compound 36]		4	4	32	8		4
C[C@@H](O)[C@H]1C(=O)N2C(C(=O)[O-])=C(C[N+](C)(C)CCNC(=O)c3ccc(O)c(O)c3F)[C@H](C)[C@H]12 [Compound 41]		8	4	8	32		16
C[C@@H](O)[C@H]1C(=O)N2C(C(=O)[O-])=C(C[N+]3(CCNC(=O)c4ccc(O)c(O)c4F)CCCC3)[C@H](C)[C@H]12 [Compound 42]		4	2	16	16		8

From patent publication US10933051B2, “Carbapenem compounds and compositions for the treatment of bacterial infections” (FOB Synthesis, Inc., priority 2017, dated 2021)
